# Measured values published in paper PMC4503722, “Novel Phenotypic Outcomes Identified for a Public Collection of Approved Drugs from a Publicly Accessible Panel of Assays” (PLoS ONE, 2015).
# Where two headings read alike, the source gives them in different places.
# How the values were obtained:
# [1] = tested on: endothelial tube formation in co-cultures of ECFCs and ADSCs treated with VEGF; test: cells; assay type: cell-based, human
# [2] = tested on: HeLa cells; test: cells; assay type: cell-based; details: for EC50: HeLa, read-out: CellCycle G2/M;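 on Hela CellCycMod PI 4N summarized IC50: value tracks stimulation of 4N DNA content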
# [3] = tested on: DLD-1; test: cells; assay type: cell-based
# [4] = tested on: HCT116; test: cells; assay type: cell-based
# [5] = tested on: HCT116 cells treated with a GSK3β inhibitor; test: cells; assay type: cell-based
# [6] = tested on: Colo320; test: cells; assay type: cell-based
# [7] = target: T1, hp70S6K1 (RPS6KB1) (Homo sapiens, UniProt P23443); test: Cerep LANCE kinase assay hp70S6K1 (S1 assay 31); assay type: biochemical
# T1 construct: purchased Cerep (LANCE kinase assay platform, contract assay)
# T1 sequence (P23443 whole entry): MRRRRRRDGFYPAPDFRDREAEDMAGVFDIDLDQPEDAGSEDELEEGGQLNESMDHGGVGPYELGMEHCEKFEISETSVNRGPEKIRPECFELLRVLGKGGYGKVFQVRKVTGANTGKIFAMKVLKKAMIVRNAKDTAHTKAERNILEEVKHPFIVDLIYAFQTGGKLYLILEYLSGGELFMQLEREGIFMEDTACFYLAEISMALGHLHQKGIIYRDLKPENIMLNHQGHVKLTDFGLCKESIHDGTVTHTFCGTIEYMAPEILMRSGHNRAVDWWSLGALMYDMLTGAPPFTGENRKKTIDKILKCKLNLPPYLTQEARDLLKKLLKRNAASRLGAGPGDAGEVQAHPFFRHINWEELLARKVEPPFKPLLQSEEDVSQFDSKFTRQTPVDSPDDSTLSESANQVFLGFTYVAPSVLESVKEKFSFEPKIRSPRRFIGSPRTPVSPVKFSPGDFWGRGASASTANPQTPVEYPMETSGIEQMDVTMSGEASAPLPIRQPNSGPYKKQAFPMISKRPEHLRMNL
# [8] = target: T2, hKDR (Homo sapiens, UniProt P35968); test: Cerep LANCE kinase assay hKDR (S1 assay 32); assay type: biochemical
# T2 construct: purchased Cerep (LANCE kinase assay platform, contract assay)
# T2 sequence (P35968 20-1356): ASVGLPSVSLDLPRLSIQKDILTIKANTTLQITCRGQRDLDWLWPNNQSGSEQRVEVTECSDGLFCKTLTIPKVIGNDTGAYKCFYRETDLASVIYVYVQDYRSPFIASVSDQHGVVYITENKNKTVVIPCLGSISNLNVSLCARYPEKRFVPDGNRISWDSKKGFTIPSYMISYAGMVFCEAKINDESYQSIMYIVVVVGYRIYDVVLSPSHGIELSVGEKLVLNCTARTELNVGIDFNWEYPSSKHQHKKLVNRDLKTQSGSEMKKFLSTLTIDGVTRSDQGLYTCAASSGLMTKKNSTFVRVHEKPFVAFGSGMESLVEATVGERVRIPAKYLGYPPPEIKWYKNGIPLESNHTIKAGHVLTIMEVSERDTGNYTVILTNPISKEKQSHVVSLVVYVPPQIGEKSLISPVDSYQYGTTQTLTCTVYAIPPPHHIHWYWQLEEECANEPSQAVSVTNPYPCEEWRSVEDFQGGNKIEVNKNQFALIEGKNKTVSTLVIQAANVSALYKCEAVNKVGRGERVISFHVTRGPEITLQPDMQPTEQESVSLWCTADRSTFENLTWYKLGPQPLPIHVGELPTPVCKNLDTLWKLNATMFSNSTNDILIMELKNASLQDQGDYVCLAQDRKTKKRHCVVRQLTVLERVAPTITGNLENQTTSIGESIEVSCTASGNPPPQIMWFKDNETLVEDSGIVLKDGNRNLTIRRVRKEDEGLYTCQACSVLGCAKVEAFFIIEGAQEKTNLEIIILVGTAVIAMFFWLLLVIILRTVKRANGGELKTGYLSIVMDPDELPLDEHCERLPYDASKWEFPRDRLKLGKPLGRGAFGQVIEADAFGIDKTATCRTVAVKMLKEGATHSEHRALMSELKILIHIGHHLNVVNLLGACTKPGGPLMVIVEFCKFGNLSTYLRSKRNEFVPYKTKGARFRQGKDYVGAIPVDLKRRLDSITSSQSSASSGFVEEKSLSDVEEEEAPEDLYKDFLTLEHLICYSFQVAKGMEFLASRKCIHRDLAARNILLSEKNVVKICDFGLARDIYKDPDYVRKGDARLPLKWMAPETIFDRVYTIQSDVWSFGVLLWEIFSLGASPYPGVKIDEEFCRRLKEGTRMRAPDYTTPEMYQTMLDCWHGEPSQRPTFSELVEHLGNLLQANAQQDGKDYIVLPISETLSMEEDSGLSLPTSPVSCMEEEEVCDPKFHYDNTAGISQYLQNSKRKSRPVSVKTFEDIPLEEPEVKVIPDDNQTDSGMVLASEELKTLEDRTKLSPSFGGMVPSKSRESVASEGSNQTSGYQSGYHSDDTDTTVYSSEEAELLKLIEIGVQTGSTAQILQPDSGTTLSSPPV
# [9] = target: T3, hGSK3b (Homo sapiens, UniProt P49841); test: Cerep LANCE kinase assay hGSK3b (S1 assay 34); assay type: biochemical
# T3 construct: purchased Cerep (LANCE kinase assay platform, contract assay)
# T3 sequence (P49841 whole entry): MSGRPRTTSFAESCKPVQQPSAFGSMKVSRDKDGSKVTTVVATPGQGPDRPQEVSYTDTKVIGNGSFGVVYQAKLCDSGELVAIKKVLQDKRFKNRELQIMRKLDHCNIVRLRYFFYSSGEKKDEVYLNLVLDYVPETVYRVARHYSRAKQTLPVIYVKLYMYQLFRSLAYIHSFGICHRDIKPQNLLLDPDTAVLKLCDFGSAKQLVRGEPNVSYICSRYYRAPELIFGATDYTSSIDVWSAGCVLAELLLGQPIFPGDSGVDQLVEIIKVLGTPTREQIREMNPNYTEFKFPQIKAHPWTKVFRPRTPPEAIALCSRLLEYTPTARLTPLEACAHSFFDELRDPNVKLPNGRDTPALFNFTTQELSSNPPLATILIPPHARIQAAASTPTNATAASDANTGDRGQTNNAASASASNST
# [10] = target: T4, hFLT3 (Homo sapiens, UniProt P36888); test: Cerep LANCE kinase assay hFLT3 (S1 assay 35); assay type: biochemical
# T4 construct: purchased Cerep (LANCE kinase assay platform, contract assay)
# T4 sequence (P36888 27-993): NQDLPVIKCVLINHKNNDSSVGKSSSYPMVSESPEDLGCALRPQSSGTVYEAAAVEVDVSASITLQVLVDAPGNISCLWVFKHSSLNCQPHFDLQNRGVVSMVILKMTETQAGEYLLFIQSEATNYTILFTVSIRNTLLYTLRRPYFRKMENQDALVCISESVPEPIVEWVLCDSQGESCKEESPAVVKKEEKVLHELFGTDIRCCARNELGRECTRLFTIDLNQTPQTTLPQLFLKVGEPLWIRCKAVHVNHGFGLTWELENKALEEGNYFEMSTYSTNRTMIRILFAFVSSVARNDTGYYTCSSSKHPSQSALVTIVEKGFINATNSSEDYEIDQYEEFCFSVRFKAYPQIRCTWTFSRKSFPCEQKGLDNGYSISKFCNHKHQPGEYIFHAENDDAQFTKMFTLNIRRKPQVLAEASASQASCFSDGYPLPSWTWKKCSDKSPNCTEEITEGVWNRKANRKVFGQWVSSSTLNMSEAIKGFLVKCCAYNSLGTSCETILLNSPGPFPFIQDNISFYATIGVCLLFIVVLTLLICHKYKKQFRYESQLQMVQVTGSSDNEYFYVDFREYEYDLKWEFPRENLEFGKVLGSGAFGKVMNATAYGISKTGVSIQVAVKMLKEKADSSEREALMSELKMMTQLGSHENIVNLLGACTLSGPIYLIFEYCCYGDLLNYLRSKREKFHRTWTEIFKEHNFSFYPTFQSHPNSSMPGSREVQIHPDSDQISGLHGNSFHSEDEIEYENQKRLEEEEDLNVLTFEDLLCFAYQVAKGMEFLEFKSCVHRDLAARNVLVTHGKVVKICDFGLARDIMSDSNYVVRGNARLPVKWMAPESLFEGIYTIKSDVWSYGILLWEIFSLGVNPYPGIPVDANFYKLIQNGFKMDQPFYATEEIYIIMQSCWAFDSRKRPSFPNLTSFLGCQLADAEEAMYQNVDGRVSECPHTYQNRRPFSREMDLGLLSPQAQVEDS
# [11] = tested on: ECFC/ADSC co-culture cell nuclei number; details: read-out: VEGF_ADSC\ECFC Angio Hoechst NucArea summarized IC50
# [12] = tested on: nuclear β-catenin in C2C12 cells; test: cells; assay type: cell-based
# [13] = tested on: INS-1E cells; test: cells; assay type: cell-based, rat
# [14] = tested on: NCI-H716 cells; test: cells; assay type: cell-based, Human
# [15] = tested on: SW480; test: cells; assay type: cell-based
# [16] = tested on: HT-29; test: cells; assay type: cell-based; details: HT-29, read-out: Basal_Viability ATP HT-29
# [17] = tested on: RKO; test: cells; assay type: cell-based; details: RKO, read-out: Basal_Viability ATP RKO
# [18] = tested on: SNU-C1; test: cells; assay type: cell-based
# [19] = Homo sapiens, DLD-1, read-out: Basal_Viability ATP DLD-1
# [20] = Homo sapiens; read-out: Anti-Angiogenesis
# [21] = Mus musculus, C2C12; read-out: Wnt Pathway
# [22] = Rattus norvegicus, INS-1E; read-out: Insulin Secretion
# [23] = Homo sapiens, NCI-H716; read-out: GLP 1 Secretion
# [24] = Homo sapiens, S2 Table, 20 = no response at highest concentration
# [25] = Homo sapiens, HCT-116, basal, HCT116, read-out: Basal_Viability ATP HCT116
# [26] = Homo sapiens, HCT-116, HCT116 pretreated with GSK3b inhibitor, read-out: GSK3b inh pretreated_Viability ATP HCT116
# [27] = Homo sapiens; basal; Colo 320; read-out: Basal_Viability ATP Colo 320
compound,measurement,setting,value
O=C(Nc1ccc([N+](=O)[O-])cc1Cl)c1cc(Cl)ccc1O [NCGC00015735-11],IC50,[1]; read-out: VEGF_ADSC\ECFC Angio CD31 TubeArea summarized IC50,112 nM
same,IC50,[2]; read-out: Hela CellCycMod PI 2N summarized IC50,> 10000 nM
same,IC50,[2]; read-out: Hela CellCycMod PI 4N summarized IC50,> 10000 nM
same,IC50,[2]; read-out: Hela CellCycMod PI Cell Number summarized IC50,144 nM
same,IC50,[2]; read-out: Hela CellCycMod PI MI summarized IC50,> 10000 nM
same,IC50,[2]; read-out: Hela CellCycMod PI S Phase summarized IC50,> 10000 nM
same,IC50,[3]; read-out: Basal_Viability ATP DLD-1 summarized IC50,3.49 nM
same,IC50,[4]; read-out: Basal_Viability ATP HCT116 summarized IC50,1.44 nM
same,IC50,[5]; read-out: GSK3b inh pretreated_Viability ATP HCT116 summarized IC50,2.95 nM
same,IC50,[6]; read-out: Basal_Viability ATP Colo 320 summarized IC50,8.26 nM
same,IC50,[7]; read-out: hp70S6K1 LANCE summarized IC50,> 20000 nM
same,IC50,[8]; read-out: hKDR LANCE summarized IC50,> 20000 nM
same,IC50,[9]; read-out: hGSK3b LANCE summarized IC50,> 20000 nM
same,IC50,[10]; read-out: hFLT3 LANCE summarized IC50,> 20000 nM
same,IC50,[11],5810 nM
O=C(Nc1ccc([N+](=O)[O-])cc1Cl)c1cc(Cl)ccc1O [Niclosamide],IC50,"[1]; Homo sapiens, read-out: Anti-Angiogenesis",112 nM
same,EC50,"[12]; Mus musculus, C2C12, read-out: Wnt Pathway",1570 nM
same,EC50,"[13]; Rattus norvegicus, INS-1E, read-out: Insulin Secretion",> 10000 nM
same,EC50,"[14]; Homo sapiens, NCI-H716, read-out: GLP 1 Secretion",> 10000 nM
same,EC50,[2]; Homo sapiens,> 10000 nM
same,IC50,[3]; [19],3.49 nM
same,IC50,"[4]; Homo sapiens, HCT-116, read-out: Basal_Viability ATP HCT116",1.44 nM
same,IC50,"[5]; Homo sapiens, HCT-116, read-out: GSK3b inh pretreated_Viability ATP HCT116",2.95 nM
same,IC50,"[6]; Homo sapiens, COLO 320, read-out: Basal_Viability ATP Colo 320",8.26 nM
same,IC50,"[7]; kinase assay, read-out: p70S6K1",> 20000 nM
same,IC50,[8],> 20000 nM
same,IC50,"[9]; kinase assay, read-out: GSK3b",> 20000 nM
same,IC50,"[10]; kinase assay, read-out: FLT3",> 20000 nM
O=C1C2CC=CCC2C(=O)N1SC(Cl)(Cl)Cl (centres unmarked) [captan],IC50,[1]; [20],> 10000 nM
same,EC50,[12]; [21],511 nM
same,EC50,[13]; [22],> 10000 nM
same,EC50,[14]; [23],> 10000 nM
same,EC50,[2]; [24],> 10000 nM
same,IC50,"[3]; Homo sapiens, DLD-1, basal, DLD-1, read-out: Basal_Viability ATP DLD-1",348 nM
same,IC50,"[15]; Homo sapiens, SW480, basal, SW480, read-out: Basal_Viability ATP SW480",78.8 nM
same,IC50,[4]; [25],1760 nM
same,IC50,[5]; [26],2210 nM
same,IC50,[6]; [27],306 nM
same,IC50,"[16]; Homo sapiens, basal",500 nM
same,IC50,"[17]; Homo sapiens, basal",402 nM
same,IC50,"[18]; Homo sapiens, SNU-C1, basal, SNU-C1, read-out: Basal_Viability ATP SNU-C1",903 nM
CCCCCCCCCCCC[N+](C)(C)Cc1ccccc1 [dimethyldodecylbenzylammonium],IC50,[1]; read-out: Anti-Angiogenesis,> 10000 nM
same,EC50,[12]; S2 Table; module primary assay; 20 / 20.1 codes per legend; read-out: Wnt Pathway,> 10000 nM
same,EC50,[13]; S2 Table; module primary assay; 20 / 20.1 codes per legend; read-out: Insulin Secretion,> 10000 nM
same,EC50,[14]; S2 Table; module primary assay; 20 / 20.1 codes per legend; read-out: GLP 1 Secretion,> 10000 nM
same,EC50,"[2]; S2 Table, 20 = no response at highest concentration",> 10000 nM
same,IC50,"[3]; basal, DLD-1, read-out: Basal_Viability ATP DLD-1",738 nM
same,IC50,"[15]; basal, SW480, read-out: Basal_Viability ATP SW480",7950 nM
same,IC50,"[4]; basal, HCT116, read-out: Basal_Viability ATP HCT116",1960 nM
same,IC50,"[5]; HCT116 pretreated with GSK3b inhibitor, read-out: GSK3b inh pretreated_Viability ATP HCT116",> 20000 nM
same,IC50,[6]; basal; Colo 320; read-out: Basal_Viability ATP Colo 320,8990 nM
same,IC50,[16]; basal,465 nM
same,IC50,[17]; basal,3070 nM
same,IC50,"[18]; basal, SNU-C1, read-out: Basal_Viability ATP SNU-C1",20 nM
CC(=O)O[C@@]12CO[C@@H]1C[C@H](O)[C@@]1(C)C(=O)[C@H](O)C3=C(C)[C@@H](OC(=O)[C@H](O)[C@@H](NC(=O)OC(C)(C)C)c4ccccc4)C[C@@](O)([C@@H](OC(=O)c4ccccc4)[C@H]21)C3(C)C [docetaxel],IC50,"[1]; Homo sapiens, IC50 / EC50; endothelial tube area, ADSC/ECFC co-culture; read-out: Anti-Angiogenesis",1 nM
same,EC50,"[12]; Mus musculus, C2C12, IC50 / EC50; C2C12 beta-catenin translocation; read-out: Wnt Pathway",65.2 nM
same,EC50,[13]; Rattus norvegicus; IC50 / EC50; INS-1E; read-out: Insulin Secretion,> 10000 nM
same,EC50,[14]; Homo sapiens; IC50 / EC50; NCI-H716; read-out: GLP 1 Secretion,> 10000 nM
same,EC50,"[2]; Homo sapiens, IC50 / EC50",3.35 nM
same,IC50,"[3]; Homo sapiens, DLD-1, basal, read-out: Basal_Viability ATP DLD-1",8200 nM
same,IC50,"[15]; Homo sapiens, SW480, basal, read-out: Basal_Viability ATP SW480",1 nM
same,IC50,"[4]; Homo sapiens, HCT-116, basal, read-out: Basal_Viability ATP HCT116",1 nM
same,IC50,"[5]; Homo sapiens, HCT-116, GSK3b inhibitor pretreated, read-out: GSK3b inh pretreated_Viability ATP HCT116",1 nM
same,IC50,"[6]; Homo sapiens, COLO 320; read-out: Basal_Viability ATP Colo 320",1 nM
same,IC50,[16]; Homo sapiens,1 nM
same,IC50,[17]; Homo sapiens,1 nM
same,IC50,"[18]; Homo sapiens, SNU-C1, basal, read-out: Basal_Viability ATP SNU-C1",> 20000 nM
COc1cccc2c1C(=O)c1c(O)c3c(c(O)c1C2=O)C[C@@](O)(C(=O)CO)C[C@@H]3O[C@H]1C[C@H](N)[C@H](O[C@@H]2CCCCO2)[C@H](C)O1 [pirarubicin],IC50,[1]; [20],6.3 nM
same,EC50,[12]; [21],3950 nM
same,EC50,[13]; [22],> 10000 nM
same,EC50,[14]; [23],> 10000 nM
same,EC50,[2]; [24],80.6 nM
same,IC50,[3]; [19],8950 nM
same,IC50,"[15]; Homo sapiens, SW480, read-out: Basal_Viability ATP SW480",7820 nM
same,IC50,[4]; [25],911 nM
same,IC50,[5]; [26],1280 nM
same,IC50,[6]; [27],2010 nM
same,IC50,"[16]; Homo sapiens, basal",> 20000 nM
same,IC50,"[17]; Homo sapiens, basal",1010 nM
same,IC50,"[18]; Homo sapiens, SNU-C1, read-out: Basal_Viability ATP SNU-C1",9260 nM
